Experimental findings from PubChem BioAssay AID1552 (Sanford-Burnham Center for Chemical Genomics, 2009) are described below.

Structures are written as SMILES. Active and inactive are the calls of the source. How the calls were made is not given here.

In the test the target is Ubiquitin-conjugating enzyme E2 N (Homo sapiens) (UniProt P61088). Nature of the test: NMR detection of UBE2N ligand binding – biophysical, purified protein (AID 1552). Particulars: NMR binding to purified UBE2N.
Ubiquitin-conjugating enzyme E2 N (Homo sapiens), sequence (P61088 whole entry, looked up): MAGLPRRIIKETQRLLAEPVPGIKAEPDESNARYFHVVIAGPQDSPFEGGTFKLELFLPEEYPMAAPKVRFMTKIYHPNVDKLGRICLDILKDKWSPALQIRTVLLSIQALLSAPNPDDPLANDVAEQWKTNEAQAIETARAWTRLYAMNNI
What is called Kd is the concentration at which binding is half-saturated. As for `COc1ccccc1NC(=O)NC(N)=O`, the Kd is > 4 mM (inactive).

As to `COC(=O)Nc1ccc2ncn(C)c(=O)c2c1`, the Kd was > 4 mM (inactive). Turning to `COc1cccc(C(=O)N2CCOCC2)c1`, the Kd is > 4 mM (inactive).

For `CN1C(=O)/C(=C/c2ccccc2O)NC1=S`, the Kd is > 4 mM (inactive). Turning to `O=c1/c(=C/c2cccs2)sc2ncnn12`, the Kd is > 4 mM (inactive). As for `CC(C)c1ccc2c(c1)CCC1[C@](C)(CN)CCC[C@]21C` (some centres not stated), the Kd was > 4 mM (inactive). The value for `CN1CC(=O)N=C1N` was > 4 mM (inactive). Consider `Cc1ccccc1NC(=O)/C=C\C(N)=O`, for which the Kd was > 4 mM (inactive). For `COCc1nn2c(N)c(C#N)cnc2c1-c1ccccc1`, the Kd was > 4 mM (inactive). `COC(=O)c1ccc(N2CCOCC2)nc1`: the Kd was > 4 mM (inactive). As for `COC(=O)[C@@H]1OC(=O)C2OC23[C@@]1(C)CCC1[C@@]2(C)CCC(=O)C(C)(C)C2C[C@@H](OC(C)=O)[C@]13C` (some centres not stated), the Kd was > 4 mM (inactive). With `O=C(Nc1ccon1)c1ccccc1Cl`, the Kd was > 4 mM (inactive). Turning to `CC[C@@]1(O)C[C@H](O)c2c(cc3c(c2O)C(=O)c2c(O)ccc(O)c2C3=O)[C@H]1C(=O)OC`, the Kd is > 4 mM (inactive). As to `O=C(Nc1cccc2cccnc12)c1cccnc1`, the Kd was > 4 mM (inactive). Consider `CN1CCN(C(=O)c2ccccc2N)CC1`, for which the Kd is > 4 mM (inactive). `CCSc1n[nH]c(=O)[nH]c1=O`: the Kd is > 4 mM (inactive). Consider `O=C1NC(=O)C(Cc2ccccc2)C(=O)N1`, for which the Kd is > 4 mM (inactive).

With `CC(C)(C)NC(=O)N1CCC(C(N)=O)CC1`, the Kd was > 4 mM (inactive). For the compound `Nc1cccc(NC(=O)c2ccco2)c1`, the Kd was > 4 mM (inactive).

As for `COc1c2c(cc3cc[n+](C)cc13)OCO2`, the Kd is > 4 mM (inactive). On to `O=C(Oc1ccc2c(c1)CCC2)N1CCOCC1`, for which the Kd is > 4 mM (inactive). For `S=c1oc(-c2ccncc2)nn1CCc1ccncc1`, the Kd was > 4 mM (inactive). Regarding `O=c1[nH]c2ccc(S(=O)(=O)NC3CC3)cc2[nH]1`, the Kd is > 4 mM (inactive).

For the compound `C=C1C2=CC(=O)O[C@@H](c3ccoc3)[C@]2(C)CCC1[C@@]1(C)C=CC(=O)C(C)(C)[C@@H]1CC(=O)OC` (some centres not stated), the Kd is > 4 mM (inactive). In the case of `Cc1occc1C(=O)Nc1nnc(C2CCCCC2)s1`, the Kd was > 4 mM (inactive). `Nc1nc(O)c(C2=c3cc(Cl)ccc3=NC2=O)s1`: the Kd is > 4 mM (inactive). As to `COc1c(CC=C(C)C)c2c(c3oc(=O)c(-c4ccc(O)cc4)c(O)c13)C=CC(C)(C)O2`, the Kd is > 4 mM (inactive). Next, `CC(C)CCCC(C)[C@H]1CCC2C3CC[C@H]4CC(=O)CC[C@]4(C)C3CC[C@@]21C` (some centres not stated): > 4 mM (inactive); `CN(C)Cc1nc2c([nH]1)c(=O)[nH]c(=O)n2C`: > 4 mM (inactive). On to `O=C1NC(=S)N/C1=C/c1ccc(O)c(Cl)c1`, for which the Kd was > 4 mM (inactive). Turning to `Cc1ccc(/C=C/C(=O)O)cc1S(=O)(=O)NCCO`, the Kd was > 4 mM (inactive).

Turning to `O=C1NC(=S)NC(=O)C1=Cc1cccs1`, the Kd is > 4 mM (inactive). Next, `O=C(c1cc(-c2ccccc2)on1)N1CCCC1`: > 4 mM (inactive); `O=C(CS(=O)(=O)c1ccccc1)Nc1nccs1`: > 4 mM (inactive). Take `OCc1ccc(Oc2ccccc2)nc1`: the Kd was > 4 mM (inactive). For the compound `CC(C)Nc1ncnc2c1nnn2C`, the Kd is > 4 mM (inactive).

Take `Cc1cc(=O)n2[nH]c(N)nc2n1`: the Kd was > 4 mM (inactive).

In the case of `Cc1cc2ncc(C(=O)O)c(C)n2n1`, the Kd is > 4 mM (inactive).

In the case of `Cn1c(SCc2ccon2)nc2ccccc2c1=O`, the Kd is > 4 mM (inactive).

For the compound `Cn1ncc(C(=O)NC2CCCCC2)c1Cl`, the Kd was > 4 mM (inactive). Regarding `O=C1c2ccncc2C(=O)N1CNc1ccccn1`, the Kd is > 4 mM (inactive).

For the compound `NS(=O)(=O)c1ccccc1Cl`, the Kd was > 4 mM (inactive).

In the case of `Cc1noc(C)c1C(=O)N1CCC2(CC1)OCCO2`, the Kd is > 4 mM (inactive).

In the case of `O=C(O)C1Cc2c([nH]c3ccccc23)CN1` (configuration not stated), the Kd was > 4 mM (inactive). Regarding `NCCc1c[nH]c2ccccc12`, the Kd is > 4 mM (inactive).

In the case of `Cc1c(-c2ccccc2)[n+](=O)c(-c2ccco2)c(C)n1[O-]`, the Kd is > 4 mM (inactive). `CNC(=S)Nc1ccc(C(=O)O)cc1`: the Kd was > 4 mM (inactive). Next, `Cc1ccc(C(=O)Nc2c[nH]c(=O)[nH]c2=O)cc1`: > 4 mM (inactive); `Oc1ccccc1N1CCCC1`: > 4 mM (inactive); `COC(=O)Cc1cc(=O)n(-c2ccccc2)[nH]1`: > 4 mM (inactive). Turning to `O=C1CSC(=O)N1CNc1ccccc1`, the Kd is > 4 mM (inactive). For the compound `Cc1cccc(NC(=O)c2ccccc2C(=O)O)c1`, the Kd was > 4 mM (inactive). `NCc1ccc2c(c1)OCCCO2`: the Kd is > 4 mM (inactive).

`CCC(/C=C/[C@@H](C)[C@H]1CCC2C3CC=C4C[C@@H](O)CC[C@]4(C)C3CC[C@@]21C)C(C)C` (some centres not stated): the Kd is > 4 mM (inactive). For the compound `O=C(Nc1ccon1)c1ccc(Cl)s1`, the Kd was > 4 mM (inactive). The value for `CC(=O)N(C)Cc1nc2ccccc2n1C` was > 4 mM (inactive); that for `O=C(c1cccs1)N1CCCc2ccccc21` was > 4 mM (inactive); that for `CSc1ccc(/C=N/n2c(C)nnc2C)cc1` was > 4 mM (inactive). The value for `O=C1OC(N2CCOCC2)c2ccccc21` (configuration not stated) was > 4 mM (inactive).

Regarding `CCC1=Nc2ccccc2-c2nnc(SC)nc2O1`, the Kd was > 4 mM (inactive).

Consider `O=C(O)C1CC2CC1CCC2O` (configuration not stated), for which the Kd was > 4 mM (inactive). As for `COc1ccccc1-c1n[nH]c(=O)o1`, the Kd was > 4 mM (inactive). The value for `COC(=O)C[C@@H]1C2(C)C(=O)[C@@H](CC3=C4CC(O)O[C@@H](c5ccoc5)[C@]4(C)CCC32)[C@H](O)C1(C)C` (some centres not stated) was > 4 mM (inactive). Turning to `COc1ccc(C2=CC(=O)C=CC2=O)cc1`, the Kd is > 4 mM (inactive). Turning to `NC(=O)CSc1nnc2ccc3ccccc3n12`, the Kd is > 4 mM (inactive).

For the compound `CC(C)=NNC(=O)C(=O)Nc1ccc(F)cc1`, the Kd was > 4 mM (inactive).

Consider `Cc1cc(C(=O)NCc2ccccc2Br)no1`, for which the Kd was > 4 mM (inactive). With `CC(=O)O[C@@H]1CC[C@@]2(C)C(CC[C@]3(C)C2CC=C2C4CC(C)(C)CC[C@]4(C(=O)O)CC[C@]23C)C1(C)C` (some centres not stated), the Kd was > 4 mM (inactive).

With `CN1C(=O)C2CC=C(Cl)CC2C1=O` (configuration not stated), the Kd is > 4 mM (inactive). The value for `Nc1cc(C(=O)O)ccc1N1CCCCCC1` was > 4 mM (inactive); that for `CN1C2CCC1CC(OC(=O)C(CO)c1ccccc1)C2` (configuration not stated) was > 4 mM (inactive). On to `O=c1c2c(nc3nc(COc4ccccc4)[nH]n13)CCC2`, for which the Kd was > 4 mM (inactive).
